The data set can be described thus: recombinant barcode read abundance after kanamycin selection (control-corrected) (log10(CPM+1)); higher = more efficient recombination; sequences stand for … in AGTGCAGAGAAAATCGGCCAGTTTTCTCTGCCTGCAGTCCGCATGCCGT…AGATTTATGCAGCGGACTGCCTTTCTCCCAAAGTGATAAACCGGACAGTATCATGGACCGGTTTTCCCGGTAATCCGTATTTGCAAGGTTGGTTTCACT; site = the 11-nt target. In a few lines:
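This pooled E. coli screen matched targets with IS621 bridge RNA target-binding loops. Plating was done in duplicate on chloramphenicol/ampicillin LB agar as a control and on chloramphenicol/ampicillin/kanamycin plus 0.1 mM IPTG. Recombination efficiency reflects barcode counts at recombinant junctions as counts per million, averaged and control-corrected. The figures are log10(CPM+1).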
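Also: IS621 recombinase and bridge RNA in Escherichia coli cells.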

Take “GTCATGTCTTGGGTTCTAACCTGTTGCCT (site GCCATGTCTAG)”: the “recombinant barcode read abundance (log10)” value was found to be 0.781. As for “GTCATGTCTTGGGTTCTAACCTGTTGCCT (site GTCATGTCTAG)”, the “recombinant barcode read abundance (log10)” value is 1.45. As for “GTCATGTCTTGGGTTCTAACCTGTTGCTC (site AGACGACCTCC)”, the figure is 0.0394; as for “GTCATGTCTTGGGTTCTAACCTGTTGCTC (site GTCATGTCTGA)”, 1.23; as for “GTCCAGACTTGGGTTCTAACCTGTTGCCT (site GTACAGACTAG)”, 0.92. For “GTCCAGACTTGGGTTCTAACCTGTTGCCT (site GTCCAGACTAG)” the value was 1.97. As for “GTCCAGACTTGGGTTCTAACCTGTTGCCT (site GTGCAGACTAG)”, the figure is 0.508; as for “GTCCAGACTTGGGTTCTAACCTGTTGCCT (site GTTCAGACTAG)”, 0.228; as for “GTCCAGCCTTGGGTTCTAACCTGTTGCAC (site CAAAGAGCTCA)”, 0.291. “GTCCAGCCTTGGGTTCTAACCTGTTGCAC (site GTCCAGCCTGT)”: the “recombinant barcode read abundance (log10)” value came out at 2.18. For “GTCCCCTCTTGGGTTCTAACCTGTTGCCT (site GTCACCTCTAG)”, the “recombinant barcode read abundance (log10)” value worked out at 0.0601.

For the sequence “GTCCCCTCTTGGGTTCTAACCTGTTGCCT (site GTCCCCTCTAG)”, the “recombinant barcode read abundance (log10)” value was found to be 1.74. For “GTCCCCTCTTGGGTTCTAACCTGTTGCCT (site GTCGCCTCTAG)” the value was 0.109; for “GTCCCCTCTTGGGTTCTAACCTGTTGCCT (site GTCTCCTCTAG)”, 0.0122; for “GTCCCTACTTGGGTTCTAACCTGTTGCCG (site GTCACTACTCG)”, 0.12.

“GTCCCTACTTGGGTTCTAACCTGTTGCCG (site GTCCCTACTCG)”: the “recombinant barcode read abundance (log10)” value turned out to be 1.11.

As for “GTCCCTACTTGGGTTCTAACCTGTTGCCG (site GTCGCTACTCG)”, the “recombinant barcode read abundance (log10)” value is 0. For “GTCCCTACTTGGGTTCTAACCTGTTGCCG (site GTCTCTACTCG)” the value was 0.0614; for “GTCCGCTCTTGGGTTCTAACCTGTTGCCT (site ATCCGCTCTAG)”, 1.4; for “GTCCGCTCTTGGGTTCTAACCTGTTGCCT (site CTCCGCTCTAG)”, 0.823. For “GTCCGCTCTTGGGTTCTAACCTGTTGCCT (site GTCCGCTCTAG)”, the “recombinant barcode read abundance (log10)” value turned out to be 2.37. For “GTCCGCTCTTGGGTTCTAACCTGTTGCCT (site TTCCGCTCTAG)” the value was 0.383. In the case of “GTCCGGTCTTGGGTTCTAACCTGTTGCTT (site GTCCGGTCTAA)”, the “recombinant barcode read abundance (log10)” value was 1.07. As for “GTCCGGTCTTGGGTTCTAACCTGTTGCTT (site GTCGGGTCTAG)”, the “recombinant barcode read abundance (log10)” value was 0.097. Regarding “GTCCGTCCTTGGGTTCTAACCTGTTGCTT (site GTCCGTCCTAA)”, the “recombinant barcode read abundance (log10)” value was 0.907.

For the sequence “GTCCGTCCTTGGGTTCTAACCTGTTGCTT (site GTCCGTCCTAC)”, the “recombinant barcode read abundance (log10)” value is 0.0973. Take “GTCCGTCCTTGGGTTCTAACCTGTTGCTT (site GTCCGTCCTAG)”: the “recombinant barcode read abundance (log10)” value came out at 0.249.

“GTCCGTCCTTGGGTTCTAACCTGTTGCTT (site GTCCGTCCTAT)”: the “recombinant barcode read abundance (log10)” value was 0.416. On to “GTCCTACCTTGGGTTCTAACCTGTTGCTA (site AGAAATACTCG)”, for which the “recombinant barcode read abundance (log10)” value worked out at 0.442. “GTCCTACCTTGGGTTCTAACCTGTTGCTA (site GTCCTACCTTA)”: the “recombinant barcode read abundance (log10)” value is 1.63. As to “GTCCTATCTTGGGTTCTAACCTGTTGCAC (site CGAGGCCCTAA)”, the “recombinant barcode read abundance (log10)” value was 0.0371. As for “GTCCTATCTTGGGTTCTAACCTGTTGCAC (site GTCCTATCTGT)”, the figure is 1.98. Regarding “GTCGATCCTTGGGTTCTAACCTGTTGCCT (site GACGATCCTAG)”, the “recombinant barcode read abundance (log10)” value came to 0.69. Take “GTCGATCCTTGGGTTCTAACCTGTTGCCT (site GCCGATCCTAG)”: the “recombinant barcode read abundance (log10)” value stood at 0.639.

Take “GTCGATCCTTGGGTTCTAACCTGTTGCCT (site GGCGATCCTAG)”: the “recombinant barcode read abundance (log10)” value amounted to 0.221.

Regarding “GTCGATCCTTGGGTTCTAACCTGTTGCCT (site GTCGATCCTAG)”, the “recombinant barcode read abundance (log10)” value worked out at 1.68. For the sequence “GTCGCCTCTTGGGTTCTAACCTGTTGCCT (site GTCACCTCTAG)”, the “recombinant barcode read abundance (log10)” value stood at 0.157. As for “GTCGCCTCTTGGGTTCTAACCTGTTGCCT (site GTCCCCTCTAG)”, the figure is 0.491. As for “GTCGCCTCTTGGGTTCTAACCTGTTGCCT (site GTCGCCTCTAG)”, the figure is 0.297. Regarding “GTCGCCTCTTGGGTTCTAACCTGTTGCCT (site GTCTCCTCTAG)”, the “recombinant barcode read abundance (log10)” value was found to be 0.0886. For “GTCGGAGCTTGGGTTCTAACCTGTTGCAG (site GTCGGAGCTCA)”, the “recombinant barcode read abundance (log10)” value was 0.681. On to “GTCGGAGCTTGGGTTCTAACCTGTTGCAG (site GTCGGAGCTCC)”, for which the “recombinant barcode read abundance (log10)” value was 0.165. As for “GTCGGAGCTTGGGTTCTAACCTGTTGCAG (site GTCGGAGCTCG)”, the figure is 0.104.

“GTCGGAGCTTGGGTTCTAACCTGTTGCAG (site GTCGGAGCTCT)”: the “recombinant barcode read abundance (log10)” value is 1.89. On to “GTCGGGTCTTGGGTTCTAACCTGTTGCCT (site GTCCGGTCTAA)”, for which the “recombinant barcode read abundance (log10)” value is 0.054. For “GTCGGGTCTTGGGTTCTAACCTGTTGCCT (site GTCGGGTCTAG)” the value was 1.47; for “GTCGGTCCTTGGGTTCTAACCTGTTGCCG (site AGTTTAACTGT)”, 0.0178; for “GTCGGTCCTTGGGTTCTAACCTGTTGCCG (site GTCGGTCCTCG)”, 1.04. For “GTCGTCCCTTGGGTTCTAACCTGTTGCCA (site GCCGTCCCTTA)” the value was 0.071; for “GTCGTCCCTTGGGTTCTAACCTGTTGCCA (site GTCGTCCCTTG)”, 0.231. As for “GTCTATGCTTGGGTTCTAACCTGTTGCCT (site GACTATGCTAG)”, the figure is 0.106; as for “GTCTATGCTTGGGTTCTAACCTGTTGCCT (site GCCTATGCTAG)”, 0.213; as for “GTCTATGCTTGGGTTCTAACCTGTTGCCT (site GGCTATGCTAG)”, 0.185. As to “GTCTATGCTTGGGTTCTAACCTGTTGCCT (site GTCTATGCTAG)”, the “recombinant barcode read abundance (log10)” value was determined as 0.0906. As for “GTCTCAACTTGGGTTCTAACCTGTTGCCT (site GTCTCAACTAG)”, the figure is 0.604; as for “GTCTCAACTTGGGTTCTAACCTGTTGCCT (site TTCTGAACTAG)”, 0.0305. For “GTCTCATCTTGGGTTCTAACCTGTTGCAT (site AGTATCCCTCG)” the value was 0.0153; for “GTCTCATCTTGGGTTCTAACCTGTTGCAT (site GTCTCATCTAT)”, 0.362.

Regarding “GTCTCTACTTGGGTTCTAACCTGTTGCGG (site GTCGCTACTCC)”, the “recombinant barcode read abundance (log10)” value came out at 0. For “GTCTCTACTTGGGTTCTAACCTGTTGCGG (site GTCTCTACTCC)” the value was 0.00855; for “GTCTCTCCTTGGGTTCTAACCTGTTGCAG (site AAGGGCTCTAA)”, 0.0245.

As for “GTCTCTCCTTGGGTTCTAACCTGTTGCAG (site GTCTCTCCTCT)”, the “recombinant barcode read abundance (log10)” value came out at 0.0635. As for “GTCTCTCCTTGGGTTCTAACCTGTTGCCG (site GTCTCTCCTCG)”, the figure is 0.0734; as for “GTCTCTCCTTGGGTTCTAACCTGTTGCCG (site GTGTCTCCTCG)”, 0.0724; as for “GTCTGATCTTGGGTTCTAACCTGTTGCCT (site GTCTAATCTAG)”, 0.0854.

For “GTCTGATCTTGGGTTCTAACCTGTTGCCT (site GTCTCATCTAG)”, the “recombinant barcode read abundance (log10)” value was 0.113. For “GTCTGATCTTGGGTTCTAACCTGTTGCCT (site GTCTGATCTAG)” the value was 0.97; for “GTCTGATCTTGGGTTCTAACCTGTTGCCT (site GTCTTATCTAG)”, 0.186. Regarding “GTCTGCCCTTGGGTTCTAACCTGTTGCCT (site GACTGCCCTAG)”, the “recombinant barcode read abundance (log10)” value stood at 0.181. For “GTCTGCCCTTGGGTTCTAACCTGTTGCCT (site GCCTGCCCTAG)”, the “recombinant barcode read abundance (log10)” value was found to be 0.191. For “GTCTGCCCTTGGGTTCTAACCTGTTGCCT (site GGCTGCCCTAG)” the value was 0.239. As for “GTCTGCCCTTGGGTTCTAACCTGTTGCCT (site GTCTGCCCTAG)”, the figure is 1.73; as for “GTCTTAACTTGGGTTCTAACCTGTTGCCG (site GTCTTAACTCG)”, 0.338; as for “GTCTTAACTTGGGTTCTAACCTGTTGCCG (site GTCTTGACTTG)”, 0.0525. Regarding “GTGAACTCTTGGGTTCTAACCTGTTGCCT (site GTAAACTCTAG)”, the “recombinant barcode read abundance (log10)” value came out at 1.56.

With “GTGAACTCTTGGGTTCTAACCTGTTGCCT (site GTCAACTCTAG)”, the “recombinant barcode read abundance (log10)” value is 0.0453. For “GTGAACTCTTGGGTTCTAACCTGTTGCCT (site GTGAACTCTAG)” the value was 1.85.

Source of the values: the supplement of paper PMC11208160.
